Assay results taken from patent publication US11850250B2, “Use of homoharringtonine in preparation of betacoronavirus replication inhibitor in human” (priority 2020, dated 2023).

What was measured:
SARS-CoV-2 = assay: microbe, parasite or virus in culture; format: cell-based; conditions: Severe acute respiratory syndrome coronavirus 2, Vero C1008, read-out: Inhibition rate (%)
60 human cell lines = assay: Cytotoxicity of HHT in 60 human cell lines; conditions: 1 μM (or lower) for 48 hours; cell lines other than the few that died obviously, of 60 human cell lines

SMILES: COC(=O)C[C@](O)(CCCC(C)(C)O)C(=O)O[C@@H]1C(OC)=C[C@]23CCCN2CCc2cc4c(cc2[C@H]13)OCO4 [HHT, Homoharringtonine]
- inhibition at 0.186 µM (SARS-CoV-2; drug concentration 0.186 μM): 31.7 ± 7.64%
- inhibition at 0.375 µM (SARS-CoV-2; drug concentration 0.375 μM): 60 ± 8.66%
- inhibition at 0.75 µM (SARS-CoV-2; drug concentration 0.75 μM): 86.7 ± 2.89%
- inhibition at 1.5 µM (SARS-CoV-2; drug concentration 1.50 μM): 93.3 ± 2.89%
- cell viability (60 human cell lines): about 100%
